Laboratory results published in ChEMBL document CHEMBL3885881, “DrugMatrix”.

Species: Rattus norvegicus
Experiment: DrugMatrix - Regimen: Daily Repeat
Type: toxicity, organism-based, Sprague-Dawley
Parameters: regimen Daily Repeat, gender Male, age 6-8 weeks
Details: in vivo, po, route oral GAVAGE, […]; for ABSOLUTE BASOPHIL / ABSOLUTE EOSINOPHIL / ABSOLUTE LYMPHOCYTE / ABSOLUTE MONOCYTE / ABSOLUTE SEGMENTED NEUTROPHIL / BASOPHIL / EOSINOPHIL / ERYTHROCYTE COUNT / HEMATOCRIT / HEMOGLOBIN / LEUKOCYTE COUNT / LYMPHOCYTE / MEAN CORPUSCULAR HEMOGLOBIN / MEAN CORPUSCULAR HEMOGLOBIN CONCENTRATION / MEAN CORPUSCULAR VOLUME / MONOCYTE / NEUTROPHIL / NUCLEATED RED BLOOD CELLS / PLATELET COUNT: tissue Blood; for ALANINE AMINOTRANSFERASE / ALKALINE PHOSPHATASE / ASPARTATE AMINOTRANSFERASE / BLOOD UREA NITROGEN / CARBON DIOXIDE / CHLORIDE / CHOLESTEROL / CREATINE PHOSPHOKINASE / CREATININE / GLUCOSE / LACTATE DEHYDROGENASE / LIPASE / PHOSPHORUS / POTASSIUM / SODIUM / TOTAL BILIRUBIN / TOTAL PROTEIN / URIC ACID: tissue Plasma
[1] = 0 mg/kg, 72 h, dose level Control, time 3 day
[2] = 0 mg/kg, 120 h, dose level Control, time 5 day
[3] = 22 mg/kg, 72 h, dose level High, time 3 day

With `OCCN1CCN(CCCN2c3ccccc3Sc3ccc(C(F)(F)F)cc32)CC1` [FLUPHENAZINE] the “ABSOLUTE BASOPHIL” value [1] was 0 CELLS/uL, the “ABSOLUTE EOSINOPHIL” value [1] was 0 CELLS/uL and the “ABSOLUTE LYMPHOCYTE” value [1] was 6275.67 CELLS/uL. The “ABSOLUTE MONOCYTE” value [1] was 40.67 CELLS/uL, the “ABSOLUTE SEGMENTED NEUTROPHIL” value [1] was 633.67 CELLS/uL and the BASOPHIL [1] was 0%. The EOSINOPHIL [1] was 0%, the “ERYTHROCYTE COUNT” value [1] was 5.2 x10E6/uL and the HEMATOCRIT [1] was 32.78%. For the same compound, the HEMOGLOBIN [1] was 12.98 G/DL, the “LEUKOCYTE COUNT” value [1] was 6.95 x10E3/uL and the LYMPHOCYTE [1] was 90.17%. The “MEAN CORPUSCULAR HEMOGLOBIN” value [1] was 24.97 pg, the “MEAN CORPUSCULAR HEMOGLOBIN CONCENTRATION” value [1] was 39.62 G/DL and the “MEAN CORPUSCULAR VOLUME” value [1] was 63.03 fL. The MONOCYTE [1] was 0.67%, the NEUTROPHIL [1] was 9.17% and the “NUCLEATED RED BLOOD CELLS” value [1] was 0 /100WBC. For the same compound, the “PLATELET COUNT” value [1] was 1082.83 x10E3/uL, the “ALANINE AMINOTRANSFERASE” value [1] was 69.67 u/L and the “ALKALINE PHOSPHATASE” value [1] was 430.5 u/L. For the same compound, the “ASPARTATE AMINOTRANSFERASE” value [1] was 90.83 u/L, the “BLOOD UREA NITROGEN” value [1] was 13 mg/dL and the “CARBON DIOXIDE” value [1] was 33 mmol/L. The CHLORIDE [1] was 99.17 MEQ/L, the CHOLESTEROL [1] was 70.5 mg/dL and the “CREATINE PHOSPHOKINASE” value [1] was 253.33 u/L. The CREATININE [1] was 0.13 mg/dL, the GLUCOSE [1] was 157.17 mg/dL and the “LACTATE DEHYDROGENASE” value [1] was 85 u/L. For the same compound, the LIPASE [1] was 10 u/L, the PHOSPHORUS [1] was 10.2 mg/dL and the POTASSIUM [1] was 5.78 MEQ/L. The SODIUM [1] was 144.12 MEQ/L, the “TOTAL BILIRUBIN” value [1] was 0.2 mg/dL and the “TOTAL PROTEIN” value [1] was 5.8 G/DL. The “URIC ACID” value [1] was 0.8 mg/dL, the “ABSOLUTE BASOPHIL” value [2] was 0 CELLS/uL and the “ABSOLUTE EOSINOPHIL” value [2] was 0 CELLS/uL. The “ABSOLUTE LYMPHOCYTE” value [2] was 10431 CELLS/uL, the “ABSOLUTE MONOCYTE” value [2] was 90.5 CELLS/uL and the “ABSOLUTE SEGMENTED NEUTROPHIL” value [2] was 1111.83 CELLS/uL. For the same compound, the BASOPHIL [2] was 0%, the EOSINOPHIL [2] was 0% and the “ERYTHROCYTE COUNT” value [2] was 5.51 x10E6/uL. The HEMATOCRIT [2] was 34.67%, the HEMOGLOBIN [2] was 13.5 G/DL and the “LEUKOCYTE COUNT” value [2] was 11.63 x10E3/uL. The LYMPHOCYTE [2] was 89.67%, the “MEAN CORPUSCULAR HEMOGLOBIN” value [2] was 24.5 pg and the “MEAN CORPUSCULAR HEMOGLOBIN CONCENTRATION” value [2] was 38.95 G/DL. The “MEAN CORPUSCULAR VOLUME” value [2] was 62.87 fL, the MONOCYTE [2] was 0.67% and the NEUTROPHIL [2] was 9.67%. For the same compound, the “NUCLEATED RED BLOOD CELLS” value [2] was 0 /100WBC, the “PLATELET COUNT” value [2] was 1052.67 x10E3/uL and the “ALANINE AMINOTRANSFERASE” value [2] was 54.67 u/L. The “ALKALINE PHOSPHATASE” value [2] was 359.83 u/L, the “ASPARTATE AMINOTRANSFERASE” value [2] was 83 u/L and the “BLOOD UREA NITROGEN” value [2] was 13.5 mg/dL. For the same compound, the “CARBON DIOXIDE” value [2] was 27.17 mmol/L, the CHLORIDE [2] was 98.5 MEQ/L and the CHOLESTEROL [2] was 66.83 mg/dL. The “CREATINE PHOSPHOKINASE” value [2] was 256.17 u/L, the CREATININE [2] was 0.19 mg/dL and the GLUCOSE [2] was 171.33 mg/dL. The “LACTATE DEHYDROGENASE” value [2] was 91.5 u/L, the LIPASE [2] was 10.5 u/L and the PHOSPHORUS [2] was 8.72 mg/dL. For the same compound, the POTASSIUM [2] was 5.34 MEQ/L, the SODIUM [2] was 142.53 MEQ/L and the “TOTAL BILIRUBIN” value [2] was 0.2 mg/dL. The “TOTAL PROTEIN” value [2] was 6.05 G/DL, the “URIC ACID” value [2] was 0.6 mg/dL and the “ABSOLUTE BASOPHIL” value [3] was 0 CELLS/uL. For the same compound, the “ABSOLUTE EOSINOPHIL” value [3] was 0 CELLS/uL, the “ABSOLUTE LYMPHOCYTE” value [3] was 7819 CELLS/uL and the “ABSOLUTE MONOCYTE” value [3] was 96.67 CELLS/uL. For the same compound, the “ABSOLUTE SEGMENTED NEUTROPHIL” value [3] was 384.33 CELLS/uL, the BASOPHIL [3] was 0% and the EOSINOPHIL [3] was 0%. For the same compound, the “ERYTHROCYTE COUNT” value [3] was 6.13 x10E6/uL, the HEMATOCRIT [3] was 39.3% and the HEMOGLOBIN [3] was 15.37 G/DL. For the same compound, the “LEUKOCYTE COUNT” value [3] was 8.3 x10E3/uL, the LYMPHOCYTE [3] was 94.67% and the “MEAN CORPUSCULAR HEMOGLOBIN” value [3] was 25.03 pg. The “MEAN CORPUSCULAR HEMOGLOBIN CONCENTRATION” value [3] was 39.07 G/DL, the “MEAN CORPUSCULAR VOLUME” value [3] was 64.13 fL and the MONOCYTE [3] was 1%. The NEUTROPHIL [3] was 4.33%, the “NUCLEATED RED BLOOD CELLS” value [3] was 0 /100WBC and the “PLATELET COUNT” value [3] was 1324.33 x10E3/uL. For the same compound, the “ALANINE AMINOTRANSFERASE” value [3] was 35.33 u/L, the “ALKALINE PHOSPHATASE” value [3] was 274 u/L and the “ASPARTATE AMINOTRANSFERASE” value [3] was 77 u/L. The “BLOOD UREA NITROGEN” value [3] was 16.33 mg/dL, the “CARBON DIOXIDE” value [3] was 34 mmol/L and the CHLORIDE [3] was 108.33 MEQ/L. The CHOLESTEROL [3] was 92.67 mg/dL, the “CREATINE PHOSPHOKINASE” value [3] was 280 u/L and the CREATININE [3] was 0.13 mg/dL. The GLUCOSE [3] was 154 mg/dL, the “LACTATE DEHYDROGENASE” value [3] was 79.33 u/L and the LIPASE [3] was 9.67 u/L. The PHOSPHORUS [3] was 9.4 mg/dL, the POTASSIUM [3] was 5.57 MEQ/L and the SODIUM [3] was 156.07 MEQ/L. The “TOTAL BILIRUBIN” value [3] was 0.17 mg/dL, the “TOTAL PROTEIN” value [3] was 6.13 G/DL and the “URIC ACID” value [3] was 0.53 mg/dL.
